This is an account of results in patent US20240398828A1, “HETERO-ATOM CONTAINING COMPOUNDS AND USES THEREOF” (Kumquat Biosciences Inc., priority 2021, published 2024).

Each structure is given as a SMILES string. pIC50: −log10 of the molar value. A value given as a limit tells only on which side of the number the result lay.

One assay has as its target T1, PTPN2 (i.e., TC-PTP) (Homo sapiens, UniProt P17706).
T1 sequence (P17706 1-415): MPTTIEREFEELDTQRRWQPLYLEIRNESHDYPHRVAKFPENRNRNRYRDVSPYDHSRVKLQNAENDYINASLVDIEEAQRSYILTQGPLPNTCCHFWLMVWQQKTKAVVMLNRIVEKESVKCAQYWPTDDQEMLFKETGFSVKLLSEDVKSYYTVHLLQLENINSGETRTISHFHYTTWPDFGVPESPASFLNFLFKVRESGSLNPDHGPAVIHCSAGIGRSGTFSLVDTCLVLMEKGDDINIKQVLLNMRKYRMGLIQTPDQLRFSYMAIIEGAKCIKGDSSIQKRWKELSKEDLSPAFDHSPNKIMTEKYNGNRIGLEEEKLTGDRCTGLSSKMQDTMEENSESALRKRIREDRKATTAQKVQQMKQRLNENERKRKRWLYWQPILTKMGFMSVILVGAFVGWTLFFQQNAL
Briefly: Phosphatase activity assay (DiFMUP substrate), PTPN2. Type of assay: biochemical. The settings on record: compounds binned ≤1 uM or >1 uM. Summed up:
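Enzyme (e.g. PTPN2 0.025 ng/ul) mixed about 2 min with compound at 10 serial concentrations in 50 mM HEPES pH 7.5, 150 mM NaCl, 0.5 mM EDTA, 1 mM DTT, 0.001% Tween-20 at room temperature. DiFMUP added at each enzyme's Km (about 45 μM for PTPN2). DiFMU fluorescence (ex 360/em 450 nm) followed 15-30 min; IC50 from 4-parameter fit of rates.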

A further assay has as its target T2, PTPN1 (i.e., PTP1B) (Homo sapiens, UniProt P18031).
T2 sequence (P18031 1-435): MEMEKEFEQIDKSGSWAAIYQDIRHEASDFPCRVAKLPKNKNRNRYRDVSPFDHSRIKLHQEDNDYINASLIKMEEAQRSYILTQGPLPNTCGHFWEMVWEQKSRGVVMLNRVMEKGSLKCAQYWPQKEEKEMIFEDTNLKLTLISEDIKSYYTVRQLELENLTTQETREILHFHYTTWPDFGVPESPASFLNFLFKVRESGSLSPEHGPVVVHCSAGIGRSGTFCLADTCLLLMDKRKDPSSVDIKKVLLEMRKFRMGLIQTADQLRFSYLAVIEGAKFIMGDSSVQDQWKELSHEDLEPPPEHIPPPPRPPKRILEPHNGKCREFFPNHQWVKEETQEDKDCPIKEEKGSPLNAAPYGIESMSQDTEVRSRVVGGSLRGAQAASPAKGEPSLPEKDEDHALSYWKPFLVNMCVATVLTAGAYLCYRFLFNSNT
Briefly: Phosphatase activity assay (DiFMUP substrate), PTP1B. Type of assay: biochemical. The conditions noted are these: compounds binned ≤1 uM or >1 uM. The method in brief:
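Read-out is continuous fluorescence of DiFMU (360 nm excitation, 450 nm emission) over about 15-30 minutes, with DiFMUP substrate at the enzyme's independently determined Km (PTPN2 approx. 45 μM final). Buffer: 50 mM HEPES pH 7.5, 150 mM NaCl, 0.5 mM EDTA, 1 mM DTT, 0.001% Tween-20, room temperature; initial rates versus 10-point dilution fitted for IC50, at least duplicate.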

Broadly, the pIC50 is −log10 of the IC50, conventionally taken in molar units. As to `O=C1CN(c2c(O)ccc(-c3cnn(CC4CC5CCC(C4)N5C(=O)C4CC4)c3)c2F)S(=O)(=O)N1` (stereo not drawn) [Compound 295, 5-(3-(1-((8-(cyclopropanecarbonyl)-8-azabicyclo[3.2.1]octan-3-yl)methyl)-1H-pyrazol-4-yl)-2-fluoro-6-hydroxyphenyl)-1,2,5-thiadiazolidin-3-one 1,1-dioxide], the pIC50 at PTPN2 (i.e., TC-PTP) is at least 6.00; at PTPN1 (i.e., PTP1B), at least 6.00.
Turning to `O=C1CN(c2c(O)ccc(C3=CCN(C4CC4)C3)c2F)S(=O)(=O)N1` [Compound 296, 5-(3-(1-cyclopropyl-2,5-dihydro-1H-pyrrol-3-yl)-2-fluoro-6-hydroxyphenyl)-1,2,5-thiadiazolidin-3-one 1,1-dioxide], the pIC50 on PTPN2 (i.e., TC-PTP) was at least 6.00; at PTPN1 (i.e., PTP1B), at least 6.00.
Consider `CC(N)c1cc(-c2ccc(O)c(N3CC(=O)NS3(=O)=O)c2F)[nH]n1` (stereo not drawn) [Compound 297, 5-(3-(3-(1-aminoethyl)-1H-pyrazol-5-yl)-2-fluoro-6-hydroxyphenyl)-1,2,5-thiadiazolidin-3-one 1,1-dioxide], for which the pIC50 is at least 6.00 on PTPN2 (i.e., TC-PTP) and at least 6.00 at PTPN1 (i.e., PTP1B).
On to `N#Cc1ccccc1-n1cnc(-c2ccc(O)c(N3CC(=O)NS3(=O)=O)c2F)c1` [Compound 298, 2-(4-(3-(1,1-dioxido-4-oxo-1,2,5-thiadiazolidin-2-yl)-2-fluoro-4-hydroxyphenyl)-1H-imidazol-1-yl)benzonitrile], for which the negative-log IC50 (pIC50) is at least 6.00 at PTPN2 (i.e., TC-PTP) and at least 6.00 at PTPN1 (i.e., PTP1B).
Turning to `Cc1cn(-c2ccc(O)c(N3CC(=O)NS3(=O)=O)c2F)nc1O` [Compound 299, 5-(2-fluoro-6-hydroxy-3-(3-hydroxy-4-methyl-1H-pyrazol-1-yl)phenyl)-1,2,5-thiadiazolidin-3-one 1,1-dioxide], the pIC50 is at least 6.00 at PTPN2 (i.e., TC-PTP) and at least 6.00 at PTPN1 (i.e., PTP1B).
Regarding `CN(C)c1cc(-c2ccc(O)c(N3CC(=O)NS3(=O)=O)c2F)[nH]n1` [Compound 300, 5-(3-(3-(dimethylamino)-1H-pyrazol-5-yl)-2-fluoro-6-hydroxyphenyl)-1,2,5-thiadiazolidin-3-one 1,1-dioxide], the pIC50 at PTPN2 (i.e., TC-PTP) was at least 6.00; at PTPN1 (i.e., PTP1B), at least 6.00.
With `CN(C)C1CC=C(c2ccc(O)c(N3CC(=O)NS3(=O)=O)c2F)C1` (stereo not drawn) [Compound 301, 5-(3-(4-(dimethylamino)cyclopent-1-en-1-yl)-2-fluoro-6-hydroxyphenyl)-1,2,5-thiadiazolidin-3-one 1,1-dioxide], the pIC50 at PTPN2 (i.e., TC-PTP) was at least 6.00; on PTPN1 (i.e., PTP1B) it was at least 6.00.
Consider `O=C1CN(c2c(O)ccc(-c3cn(C4CCCC4)cn3)c2F)S(=O)(=O)N1` [Compound 302, 5-(3-(1-cyclopentyl-1H-imidazol-4-yl)-2-fluoro-6-hydroxyphenyl)-1,2,5-thiadiazolidin-3-one 1,1-dioxide], for which the pIC50 is at least 6.00 on PTPN2 (i.e., TC-PTP) and at least 6.00 at PTPN1 (i.e., PTP1B).
Consider `O=C1CN(c2c(O)ccc(-c3cn(-c4cc(F)ccc4F)cn3)c2F)S(=O)(=O)N1` [Compound 303, 5-(3-(1-(2,5-difluorophenyl)-1H-imidazol-4-yl)-2-fluoro-6-hydroxyphenyl)-1,2,5-thiadiazolidin-3-one 1,1-dioxide], for which the negative-log IC50 (pIC50) was at least 6.00 on PTPN2 (i.e., TC-PTP) and at least 6.00 on PTPN1 (i.e., PTP1B).
Regarding `CC1CCC(n2cc(-c3ccc(O)c(N4CC(=O)NS4(=O)=O)c3F)cn2)CC1` (stereo not drawn) [Compound 304, 5-(2-fluoro-6-hydroxy-3-(1-(4-methylcyclohexyl)-1H-pyrazol-4-yl)phenyl)-1,2,5-thiadiazolidin-3-one 1,1-dioxide], the pIC50 on PTPN2 (i.e., TC-PTP) is at least 6.00; at PTPN1 (i.e., PTP1B), at least 6.00.
For the molecule `N#C[C@H]1CC[C@H](n2cc(-c3ccc(O)c(N4CC(=O)NS4(=O)=O)c3F)cn2)CC1` [Compound 305, (1r,4r)-4-(4-(3-(1,1-dioxido-4-oxo-1,2,5-thiadiazolidin-2-yl)-2-fluoro-4-hydroxyphenyl)-1H-pyrazol-1-yl)cyclohexane-1-carbonitrile], the pIC50 at PTPN2 (i.e., TC-PTP) was at least 6.00; at PTPN1 (i.e., PTP1B) it was at least 6.00.
As for `O=C1CN(c2c(O)ccc(-c3cn(C4CCC(F)CC4)cn3)c2F)S(=O)(=O)N1` (stereo not drawn) [Compound 306, 5-(2-fluoro-3-(1-(4-fluorocyclohexyl)-1H-imidazol-4-yl)-6-hydroxyphenyl)-1,2,5-thiadiazolidin-3-one 1,1-dioxide], the pIC50 at PTPN2 (i.e., TC-PTP) is at least 6.00; at PTPN1 (i.e., PTP1B), at least 6.00.
In the case of `O=C1CN(c2c(O)ccc(-c3cnn(CC4(O)CCC4)c3)c2F)S(=O)(=O)N1` [Compound 307, 5-(2-fluoro-6-hydroxy-3-(1-((1-hydroxycyclobutyl)methyl)-1H-pyrazol-4-yl)phenyl)-1,2,5-thiadiazolidin-3-one 1,1-dioxide], the pIC50 at PTPN2 (i.e., TC-PTP) was at least 6.00; on PTPN1 (i.e., PTP1B), at least 6.00.
On to `NCC1CCCN1c1cc(-c2ccc(O)c(N3CC(=O)NS3(=O)=O)c2F)[nH]n1` (stereo not drawn) [Compound 308, 5-(3-(3-(2-(aminomethyl)pyrrolidin-1-yl)-1H-pyrazol-5-yl)-2-fluoro-6-hydroxyphenyl)-1,2,5-thiadiazolidin-3-one 1,1-dioxide], for which the pIC50 at PTPN2 (i.e., TC-PTP) was at least 6.00; on PTPN1 (i.e., PTP1B) it was at least 6.00.
Regarding `Cc1noc(C)c1Cn1cc(-c2ccc(O)c(N3CC(=O)NS3(=O)=O)c2F)cn1` [Compound 309, 5-(3-(1-((3,5-dimethylisoxazol-4-yl)methyl)-1H-pyrazol-4-yl)-2-fluoro-6-hydroxyphenyl)-1,2,5-thiadiazolidin-3-one 1,1-dioxide], the negative-log IC50 (pIC50) on PTPN2 (i.e., TC-PTP) is at least 6.00; at PTPN1 (i.e., PTP1B), at least 6.00.
With `CN1CC(n2cc(-c3ccc(O)c(N4CC(=O)NS4(=O)=O)c3F)cn2)C1` [Compound 310, 5-(2-fluoro-6-hydroxy-3-(1-(1-methylazetidin-3-yl)-1H-pyrazol-4-yl)phenyl)-1,2,5-thiadiazolidin-3-one 1,1-dioxide], the pIC50 was at least 6.00 on PTPN2 (i.e., TC-PTP) and at least 6.00 on PTPN1 (i.e., PTP1B).
Consider `Cn1cc(-c2ccc(O)c(N3CC(=O)NS3(=O)=O)c2Cl)cn1` [Compound 311, 5-(2-chloro-6-hydroxy-3-(1-methyl-1H-pyrazol-4-yl)phenyl)-1,2,5-thiadiazolidin-3-one 1,1-dioxide], for which the pIC50 is at least 6.00 on PTPN2 (i.e., TC-PTP) and at least 6.00 on PTPN1 (i.e., PTP1B).
`C=Cc1cc(-c2ccc(O)c(N3CC(=O)NS3(=O)=O)c2F)[nH]n1` [Compound 312, 5-(2-fluoro-6-hydroxy-3-(3-vinyl-1H-pyrazol-5-yl)phenyl)-1,2,5-thiadiazolidin-3-one 1,1-dioxide]: the pIC50 at PTPN2 (i.e., TC-PTP) is at least 6.00; at PTPN1 (i.e., PTP1B), at least 6.00.
As to `N#CC1(Cn2cc(-c3ccc(O)c(N4CC(=O)NS4(=O)=O)c3F)cn2)CCC1` [Compound 313, 1-((4-(3-(1,1-dioxido-4-oxo-1,2,5-thiadiazolidin-2-yl)-2-fluoro-4-hydroxyphenyl)-1H-pyrazol-1-yl)methyl)cyclobutane-1-carbonitrile], the pIC50 on PTPN2 (i.e., TC-PTP) was at least 6.00; at PTPN1 (i.e., PTP1B) it was at least 6.00.
`O=C1CN(c2c(O)ccc(-c3[nH]nc(C4CC4)c3F)c2F)S(=O)(=O)N1` [Compound 314, 5-(3-(3-cyclopropyl-4-fluoro-1H-pyrazol-5-yl)-2-fluoro-6-hydroxyphenyl)-1,2,5-thiadiazolidin-3-one 1,1-dioxide]: the negative logarithm of the IC50 (pIC50) on PTPN2 (i.e., TC-PTP) was at least 6.00; on PTPN1 (i.e., PTP1B), at least 6.00.
`O=C1CN(c2c(O)ccc(C3=CCC(NCC4CC4)CC3)c2F)S(=O)(=O)N1` (stereo not drawn) [Compound 315, 5-(4′-((cyclopropylmethyl)amino)-2-fluoro-4-hydroxy-2′,3′,4′,5′-tetrahydro-[1,1′-biphenyl]-3-yl)-1,2,5-thiadiazolidin-3-one 1,1-dioxide]: the negative logarithm of the IC50 (pIC50) is at least 6.00 at PTPN2 (i.e., TC-PTP) and at least 6.00 at PTPN1 (i.e., PTP1B).
